Measured values published in PMC9866218, “Characterization and Chemical Synthesis of Cm39 (α-KTx 4.8): A Scorpion Toxin That Inhibits Voltage-Gated K^+ Channel KV1.2 and Small- and Intermediate-Conductance Ca^2+-Activated K^+ Channels KCa2.2 and KCa3.1” (Toxins, 2023).
Entries after “also recorded” stand apart in the source; their conditions may differ.

Key:
hKCa2.2 = target: T1, hKCa2.2 (Homo sapiens, UniProt Q9H2S1); assay: Whole-cell patch-clamp, block of KCa2.2 current; type: cell-based
T1 construct: expressed in transfected cells; host or cells: CHO cells, transient transfection, co-transfected with a GFP plasmid
T1 sequence (Q9H2S1 whole entry): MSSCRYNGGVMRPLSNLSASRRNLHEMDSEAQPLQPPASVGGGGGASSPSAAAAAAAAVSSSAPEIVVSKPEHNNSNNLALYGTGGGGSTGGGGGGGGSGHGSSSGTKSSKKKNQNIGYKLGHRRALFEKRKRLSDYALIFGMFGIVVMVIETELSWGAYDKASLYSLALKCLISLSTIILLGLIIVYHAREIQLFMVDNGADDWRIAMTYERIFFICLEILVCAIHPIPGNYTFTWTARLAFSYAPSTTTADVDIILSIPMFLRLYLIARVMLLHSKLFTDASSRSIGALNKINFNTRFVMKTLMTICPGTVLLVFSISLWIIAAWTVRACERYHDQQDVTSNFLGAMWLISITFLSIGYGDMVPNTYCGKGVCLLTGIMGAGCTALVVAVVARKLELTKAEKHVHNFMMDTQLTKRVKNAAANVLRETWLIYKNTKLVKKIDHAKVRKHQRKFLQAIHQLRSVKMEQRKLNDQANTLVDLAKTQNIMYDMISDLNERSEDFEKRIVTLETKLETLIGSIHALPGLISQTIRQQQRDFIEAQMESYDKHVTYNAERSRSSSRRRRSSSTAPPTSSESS
From the text: (§1) We, therefore, aimed at testing the pharmacological activity of sCm39 on a battery of various potassium and sodium ion channels. Among the tested channels were six members of human voltage-gated K^+ (hKV) channels from Shaker family, hKV1.1-hKV1.6 (Figure 3A–F) and three members of Ca^2+-activated potassium channel; hKCa2.2 (SK2, Figure 3I), the small-conductance Ca^2+-activated channel; hKCa3.1 (IKCa1, SK4. Figure 3J), the intermediate-conductance Ca^2+-activated channel expressed in T lymphocytes; and mKCa1.1 (BK, Slo1, MaxiK, Figure 3H), the large-conductance voltage- and Ca^2+-activated channel of mice. In addition, we also screened the effect of Cm39 on hKV11.1 (hERG1, Figure 3G), a voltage-gated cardiac K^+ channel, and two human voltage-gated sodium (hNaV) channels, hNaV1.4 (Figure 3K) and hNaV1.5 (Figure 3L), expressed in skeletal and cardiac muscles, respectively. These ion channels were heterologously expressed in the CHO or HEK cell lines except for KV1.3. Human peripheral T lymphocytes. They were stimulated with Phytohemagglutinin A (PHA) to increase the KV1.3 channel expression, and Ca^2+-free intracellular solution was used to avoid KCa3.1 channel activation. Appropriate depolarization protocols were used to record ionic currents in voltage-clamped cells (see Figure 3 insets and Material and Methods for details). Freshly dissolved sCm39 in extracellular solution was applied at 1 µM concentration on the cell using a custom-built micro-perfusion system at ~200 µL/min flow rate.
The whole-cell K^+ currents of CHO cells transiently expressing KCa2.2 or KCa3.1 channels were recorded sequentially by applying the 150 ms long voltage ramp to +50 mV from Vh of −120 mV every 10 s in the presence of control solution or upon perfusing the cell with different concentrations of sCm39. Normalized peak currents were calculated and plotted as function of time as shown in Figure 5A for KCa2.2 and in Figure 5C for KCa3.1 in the presence of the toxin at various concentrations and upon wash-out. […] RCF values were determined at equilibrium block in the presence of various concentrations of sCm39 and fitted with the Hill equation (see Materials and Methods for details).
Chinese hamster ovary (CHO) cells (gift from Yosef Yarden, Weizmann Institute of Science, Rehovot, Israel) were maintained by culturing in Dulbecco’s modified Eagle medium (DMEM, Gibco) supplemented with 2 mM L-glutamine, 10% FBS, 100 µg/mL streptomycin and 100 U/mL penicillin-g (Sigma-Aldrich) at a density of 0. 5−1×10^6 cells per mL in a humidified incubator at 37 °C and 5% CO2. Cells were passaged 3 times in a week following a 2–5 min incubation in 0.05% trypsin-EDTA solution at 37 °C. Cultures were used up to passage number 20. PCR-based tests were routinely used to detect mycoplasma infection, only mycoplasma-free cultures were used for experiments.
Those plasmids which lack a fluorescent tag were co-transfected with a plasmid encoding GFP. Transfections were performed at a GFP:channel DNA molar ratio of 1:10 using the Lipofectamine 2000 kit (Invitrogen) according to the manufacturer’s protocol. […] Generally, currents were recorded 24 to 48 h post transfection.
For the measurement of KV1.x, mKCa1.1 and NaV1.x currents the extracellular solution was composed of (in mM) 145 NaCl, 5 KCl, 2.5 CaCl2, 1 MgCl2, 10 HEPES and 5.5 glucose, pH 7.35.

hKV11.1 = assay: Whole-cell patch-clamp, block of KV11.1 (hERG1) current; type: cell-based, human; conditions: HEK 293 cells
From the text: as §1, with “They were stimulated with Phytohemagglutinin A (PHA) to increase the KV1.3 channel expression, and Ca^2+-free intracellular solution was used to avoid KCa3.1 channel activation. Appropriate depolarization protocols were used to record ionic currents in voltage-clamped cells (see Figure 3 insets and Material and Methods for details). Freshly dissolved sCm39 in extracellular solution was applied at 1 µM concentration on the cell using a custom-built micro-perfusion system at ~200 µL/min flow rate.” left out
Whole-cell currents were recorded in voltage-clamped cells following standard protocols by using a Multiclamp 700B amplifier connected to a computer with Axon Digidata1440 digitizer and for data acquisition, Clampex 10.7 software was used (Molecular Devices). […]

`CC[C@H](C)[C@@H]1NC(=O)[C@H](C)NC(=O)[C@H](C)NC(=O)[C@H](CCCCN)NC(=O)[C@@H]2CSSC[C@@H](C(=O)N[C@@H](Cc3ccc(O)cc3)C(=O)N[C@@H](Cc3ccc(O)cc3)C(=O)O)NC(=O)[C@H](CCCCN)NC(=O)[C@@H]3CSSC[C@H](NC(=O)[C@H](CCC(=O)O)NC(=O)[C@H](CO)NC(=O)[C@H](CO)NC(=O)[C@H](CO)NC(=O)[C@H](CCCCN)NC(=O)[C@@H](NC(=O)[C@H](CCCCN)NC(=O)[C@H](Cc4c[nH]cn4)NC(=O)[C@H](CC(N)=O)NC(=O)[C@@H](NC(=O)[C@H](Cc4ccccc4)NC(=O)[C@@H](N)[C@@H](C)O)[C@@H](C)CC)CSSC[C@H](NC(=O)[C@H](CCCCN)NC(=O)CNC(=O)[C@H](CO)NC(=O)[C@H](C)NC(=O)[C@H](CCCNC(=N)N)NC(=O)CNC1=O)C(=O)N[C@@H]([C@@H](C)CC)C(=O)N[C@@H](CC(N)=O)C(=O)N[C@@H](CO)C(=O)N[C@@H]([C@@H](C)O)C(=O)N3)C(=O)N[C@@H](CC(C)C)C(=O)N1CCC[C@H]1C(=O)N[C@@H](C)C(=O)N2` [Cm39] was tested. Which “reduction of current at equilibrium block” value (hKCa2.2; 1 µM, CHO cells, current at +48 mV, n = 3−5 (Figure 3M)) did it give?
The value was 55%.

And the “toxin association and dissociation kinetics” value (hKCa2.2; CHO cells)?
The value was “fast”.

What about the “toxin association and dissociation kinetics” value (hKCa2.2; CHO cells, listed as sCm39) of the same compound?
The value was “very fast”.

And the “Hill coefficient (H)” value (hKCa2.2; concentration-response of KCa2.2 block, CHO cells)?
Its value is 0.7.

What about the “development and almost full recovery from equilibrium block” value (hKCa2.2; pulses separated by 10 s) of the same compound?
The value was 1–3 depolarization pulses.

What about the “reversibility of KCa2.2 block” value (hKCa2.2; wash-out with toxin-free solution) of the same compound?
Its value is “fully reversible”.

What about the “inhibition (in words)” value (hKV11.1; 1 μM) of the same compound?
Its value is “does not inhibit; also recorded: did not show any effect”.

And the decrease in current (hKV11.1; 1 µM, 3−5 min, n = 3−5)?
Its decrease in current is < 3%.
